Measured values as given in ChEMBL document CHEMBL1201862, “PubChem BioAssay data set” (2004).
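Interpolation was linear, between the two tested concentrations surrounding the appropriate level; five concentrations were tested over 48 hours in 96-well plates. GI50 is the concentration that inhibits growth by half.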 The source made the active and inactive calls. Rule as the data show it: active = GI50 up to about 1.1 µM and inactive = higher.

Legend:
Assay in all cases: growth of human tumour cells (NCI), 48 h
KM12 = test system: KM12
SNB-75 = test system: SNB-75
K562 = test system: K562
Hs-578T = test system: Hs-578T
RXF 393 = test system: RXF 393
NCI/ADR-RES = test system: NCI/ADR-RES
NCI-H460 = test system: NCI-H460
SN12C = test system: SN12C
EKVX = test system: EKVX
NCI-H522 = test system: NCI-H522
HL-60 = test system: HL-60
HCT-15 = test system: HCT-15
MDA-N = test system: MDA-N
SK-MEL-2 = test system: SK-MEL-2
SF-539 = test system: SF-539
Malme-3M = test system: Malme-3M
OVCAR-5 = test system: OVCAR-5
SK-MEL-5 = test system: SK-MEL-5
CCRF-CEM = test system: CCRF-CEM
DU-145 = test system: DU-145

SMILES	GI50 (KM12)	GI50 (SNB-75)	GI50 (K562)	GI50 (Hs-578T)	GI50 (RXF 393)	GI50 (NCI/ADR-RES)	GI50 (NCI-H460)	GI50 (SN12C)	GI50 (EKVX)	GI50 (NCI-H522)	GI50 (HL-60)	GI50 (HCT-15)	GI50 (MDA-N)	GI50 (SK-MEL-2)	GI50 (SF-539)	GI50 (Malme-3M)	GI50 (OVCAR-5)	GI50 (SK-MEL-5)	GI50 (CCRF-CEM)	GI50 (DU-145)
COC(=O)C(=O)C(C(=O)C(=O)Nc1ccccc1C(C)=O)c1nc2ccc(C(=O)c3ccccc3)cc2nc1O (stereo not given)	27 µM (inactive)	32.7 µM (inactive)	39.4 µM (inactive)	47.2 µM (inactive)	51.5 µM (inactive)	30.6 µM (inactive)	58.9 µM (inactive)	> 100 µM (inactive)	92.5 µM (inactive)	28.4 µM (inactive)	> 100 µM (inactive)	74 µM	40.2 µM (inactive)	> 100 µM (inactive)	76.7 µM (inactive)	> 100 µM (inactive)	> 100 µM (inactive)	62.8 µM (inactive)		
C=C1C(=O)OC2C1C(=O)C/C(C)=C/CCC1(C)OC21 (stereo not given)	23.6 µM (inactive)	25.4 µM (inactive)	5.6 µM (inactive)	44.1 µM (inactive)	15.4 µM (inactive)	31 µM (inactive)	21.2 µM (inactive)	22.1 µM (inactive)	25.2 µM (inactive)	3.63 µM (inactive)	1.33 µM (inactive)	11.4 µM		18.5 µM (inactive)	15 µM (inactive)		17.7 µM (inactive)	19.3 µM (inactive)	2.79 µM (inactive)	17.4 µM (inactive)
CC1(C)CSCC(C)(C)C(=N/N)/C1=N\N	> 100 µM (inactive)	> 100 µM (inactive)	> 100 µM (inactive)			> 100 µM (inactive)	> 100 µM (inactive)	> 100 µM (inactive)	> 100 µM (inactive)	> 100 µM (inactive)	> 100 µM (inactive)	> 100 µM	> 100 µM (inactive)	> 100 µM (inactive)	> 100 µM (inactive)	> 100 µM (inactive)	> 100 µM (inactive)	> 100 µM (inactive)		> 100 µM (inactive)
O=S(=O)(OI(OI(OS(=O)(=O)C(F)(F)F)c1ccccc1)c1ccccc1)C(F)(F)F	28.2 µM (inactive)	60.8 µM (inactive)	6.43 µM (inactive)		17.3 µM (inactive)		39.5 µM (inactive)	49.8 µM (inactive)	58.9 µM (inactive)	23.2 µM (inactive)	4.33 µM (inactive)	> 100 µM		38.5 µM (inactive)	86.3 µM (inactive)	11.7 µM (inactive)	> 100 µM (inactive)	13.5 µM (inactive)	13.9 µM (inactive)	
CCCCCCCCCCCCNC(=O)NCC(OCC)OCC	> 10 µM (inactive)	> 10 µM (inactive)	> 10 µM (inactive)	> 10 µM (inactive)	> 10 µM (inactive)		> 10 µM (inactive)	> 10 µM (inactive)	> 10 µM (inactive)	> 10 µM (inactive)		> 10 µM	> 10 µM (inactive)	> 10 µM (inactive)	> 10 µM (inactive)		> 10 µM (inactive)	> 10 µM (inactive)	> 10 µM (inactive)	> 10 µM (inactive)
O=c1[nH]nc(Cc2ccc(Cl)cc2)n1/N=C/c1ccco1	> 100 µM (inactive)	28.6 µM (inactive)	> 100 µM (inactive)		26.5 µM (inactive)	96.8 µM (inactive)	> 100 µM (inactive)	> 100 µM (inactive)	> 100 µM (inactive)	58.9 µM (inactive)	> 100 µM (inactive)	> 100 µM	> 100 µM (inactive)	40.1 µM (inactive)	27.4 µM (inactive)	> 100 µM (inactive)	> 100 µM (inactive)		> 100 µM (inactive)	> 100 µM (inactive)
CC(=O)/C(=C/n1c(=S)sc2ccccc21)C(=O)Nc1ccccc1C	> 100 µM (inactive)	> 100 µM (inactive)			> 100 µM (inactive)	> 100 µM (inactive)	> 100 µM (inactive)	> 100 µM (inactive)	> 100 µM (inactive)		31.6 µM (inactive)	> 100 µM	> 100 µM (inactive)	> 100 µM (inactive)	> 100 µM (inactive)		> 100 µM (inactive)	39.7 µM (inactive)		> 100 µM (inactive)
CC(/C(=N/NC(=O)C(N)=O)c1c(Cl)ccc(Cl)c1O)C1(O)C(=O)Nc2ccccc21 (stereo not given)	30.4 µM (inactive)	28.6 µM (inactive)	31 µM (inactive)		55.3 µM (inactive)		28.3 µM (inactive)	70.3 µM (inactive)	43.3 µM (inactive)	19.2 µM (inactive)	26 µM (inactive)	34.1 µM		33.3 µM (inactive)	32 µM (inactive)	64.9 µM (inactive)	34.8 µM (inactive)	34.6 µM (inactive)	31.8 µM (inactive)	
Cc1ccc(-n2nnc3c(NNc4ccccc4)n[nH]c(=O)c32)cc1	> 100 µM (inactive)	36.6 µM (inactive)	48.3 µM (inactive)			76.7 µM (inactive)	30.8 µM (inactive)	> 100 µM (inactive)	80.7 µM (inactive)	30.2 µM (inactive)	84.7 µM (inactive)	> 100 µM		67.5 µM (inactive)	> 100 µM (inactive)	> 100 µM (inactive)	> 100 µM (inactive)	43.1 µM (inactive)	92 µM (inactive)	> 100 µM (inactive)
O=C1CN(c2cccc(C(F)(F)F)c2)C(=O)CN1NCNN1CC(=O)N(c2cccc(C(F)(F)F)c2)CC1=O	36 µM (inactive)	> 100 µM (inactive)	> 100 µM (inactive)	> 100 µM (inactive)		> 100 µM (inactive)	> 100 µM (inactive)	> 100 µM (inactive)	> 100 µM (inactive)	52.5 µM (inactive)	> 100 µM (inactive)	> 100 µM	> 100 µM (inactive)		> 100 µM (inactive)		> 100 µM (inactive)	> 100 µM (inactive)	> 100 µM (inactive)	
C1=N\CCN2CCN(CC/N=C\c3ccc(cc3)OCc3cccc(n3)COc3ccc/1cc3)CC2	> 50 µM (inactive)	> 50 µM (inactive)	> 50 µM (inactive)	32.7 µM (inactive)	11.6 µM (inactive)	> 50 µM (inactive)	> 50 µM (inactive)	> 50 µM (inactive)	> 50 µM (inactive)	> 50 µM (inactive)	> 50 µM (inactive)	> 50 µM		> 50 µM (inactive)	> 50 µM (inactive)	26.9 µM (inactive)	> 50 µM (inactive)		> 50 µM (inactive)	> 50 µM (inactive)
O=C(N/N=C/c1ccccc1)c1c(-c2cccnc2)cnc2ccccc12	33 µM (inactive)	34.8 µM (inactive)	44.9 µM (inactive)		> 100 µM (inactive)	69.5 µM (inactive)	61.1 µM (inactive)	> 100 µM (inactive)	> 100 µM (inactive)	> 100 µM (inactive)	42.9 µM (inactive)	48 µM	29.2 µM (inactive)	> 100 µM (inactive)	70.3 µM (inactive)	> 100 µM (inactive)	> 100 µM (inactive)	43.7 µM (inactive)	> 100 µM (inactive)	> 100 µM (inactive)
COC(OC)[C@@H]1OC[C@H](n2ccc(=O)[nH]c2=O)[C@H]1O	> 100 µM (inactive)	> 100 µM (inactive)	> 100 µM (inactive)	> 100 µM (inactive)	66.4 µM (inactive)	> 100 µM (inactive)	> 100 µM (inactive)	> 100 µM (inactive)	> 100 µM (inactive)			> 100 µM	> 100 µM (inactive)	> 100 µM (inactive)	> 100 µM (inactive)		> 100 µM (inactive)	> 100 µM (inactive)	> 100 µM (inactive)	> 100 µM (inactive)
CCCc1cn2c(/C=N/N=C(N)N)c(-c3c(OC)ccc(OC)c3[N+](=O)[O-])nc2s1	3.16 µM (inactive)	16.3 µM (inactive)	3.44 µM (inactive)	13.1 µM (inactive)	9.55 µM (inactive)	19.8 µM (inactive)	12.3 µM (inactive)	14.2 µM (inactive)	18 µM (inactive)	8.79 µM (inactive)	7.46 µM (inactive)	18.2 µM		16.7 µM (inactive)	16.9 µM (inactive)	10.3 µM (inactive)	15.6 µM (inactive)	13.3 µM (inactive)	2.84 µM (inactive)	16 µM (inactive)
Cc1ccc2c(n1)NC(=O)C(Cc1ccccc1)(N=[N+]=[N-])C2=O (stereo not given)	> 100 µM (inactive)		> 100 µM (inactive)		> 100 µM (inactive)	> 100 µM (inactive)	> 100 µM (inactive)	> 100 µM (inactive)		> 100 µM (inactive)		> 100 µM	> 100 µM (inactive)		> 100 µM (inactive)	> 100 µM (inactive)	> 100 µM (inactive)		> 100 µM (inactive)	> 100 µM (inactive)
N#Cc1c(-c2ccc([N+](=O)[O-])cc2)cc(-c2ccc(Nc3ccnc4cc(Cl)ccc34)cc2)[nH]c1=O	4.01 µM (inactive)	> 100 µM (inactive)	> 100 µM (inactive)		> 100 µM (inactive)	> 100 µM (inactive)	> 100 µM (inactive)		> 100 µM (inactive)	> 100 µM (inactive)	> 100 µM (inactive)	> 100 µM		> 100 µM (inactive)	> 100 µM (inactive)	> 100 µM (inactive)	> 100 µM (inactive)			> 100 µM (inactive)
